From article PMC6367941 (Journal of computer-aided molecular design, 2018)

Experiment: UV-metric pKa measurement with methanol cosolvent
Assay type: physicochemical
Conditions: Yasuda-Shedlovsky extrapolation to 0% methanol from psKa in ISA methanol:water mixtures, 25.0 ± 0.5 °C, ~150 mM KCl, mean ± SEM of three replicates

pKa1 | Structure (SMILES)
5.03 ± 0.01 | FC(F)(F)c1cccc(Nc2ncnc3ccccc23)c1 [SM02]
5.37 ± 0.01 | COc1cccc(Nc2ncnc3ccccc23)c1.Cl [SM09]
